In patent publication US8192962B2, “Processes for detecting toxic substances” (Daikin Industries, Ltd., priority 2001, dated 2012):

Test system: Metabolism protein genes
Experiment: DNA chip mRNA expression in yeast, metabolism protein genes (Table 7)
Assay type: cell-based, Saccharomyces cerevisiae S288C
Summary of the method: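 Ratios compare mRNA levels in stressed and control S. cerevisiae. Each toxicant was applied for two hours to log-phase cultures at 25° C. at a sub-lethal, growth-inhibiting level; fluorescent cDNA (Cy3- or Cy5-dUTP) was hybridized to a genome-wide yeast chip for over 12 h at 65° C.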

In the case of `S=C([S-])NCCNC(=S)[S-].[Zn+2]` [(11), zinc N,N′-ethylenebis(dithiocarbamate)], the “The level of expressed mRNA in the presence of chemical substance/The level of expressed mRNA in the absence of chemical substance” value (yeast gene YJR155W) is reported as 15.4, the “The level of expressed mRNA in the presence of chemical substance/The level of expressed mRNA in the absence of chemical substance” value (yeast gene YKL035W) is reported as 2.1 and the “level of expressed mRNA in the presence/in the absence of chemical substance” value (yeast gene YKL060C) is reported as 2.1. The “The level of expressed mRNA in the presence of chemical substance/The level of expressed mRNA in the absence of chemical substance” value (yeast gene YKL091C) was 1.7, the “The level of expressed mRNA in the presence of chemical substance/The level of expressed mRNA in the absence of chemical substance” value (yeast gene YKL104C) was 2.2 and the “level of expressed mRNA in the presence/in the absence of chemical substance” value (yeast gene YKL148C) was 1.5. The “The level of expressed mRNA in the presence of chemical substance/The level of expressed mRNA in the absence of chemical substance” value (yeast gene YKL152C) was 1.7, the “level of expressed mRNA in the presence/in the absence of chemical substance” value (yeast gene YKL157W) was 1.5 and the “The level of expressed mRNA in the presence of chemical substance/The level of expressed mRNA in the absence of chemical substance” value (yeast gene YKL213C) was 1.3. For the same compound, the “The level of expressed mRNA in the presence of chemical substance/The level of expressed mRNA in the absence of chemical substance” value (yeast gene YKL215C) was 0.5, the “The level of expressed mRNA in the presence of chemical substance/The level of expressed mRNA in the absence of chemical substance” value (yeast gene YKR039W) was 1.9 and the “The level of expressed mRNA in the presence of chemical substance/The level of expressed mRNA in the absence of chemical substance” value (yeast gene YLL058W) was 2.0. For the same compound, the “level of expressed mRNA in the presence/in the absence of chemical substance” value (yeast gene YLR006C) was 1.5, the “level of expressed mRNA in the presence/in the absence of chemical substance” value (yeast gene YLR044C) was 1.1 and the “level of expressed mRNA in the presence/in the absence of chemical substance” value (yeast gene YLR056W) was 0.8. For the same compound, the “level of expressed mRNA in the presence/in the absence of chemical substance” value (yeast gene YLR058C) was 2.6, the “level of expressed mRNA in the presence/in the absence of chemical substance” value (yeast gene YLR081W) was 2.6 and the “level of expressed mRNA in the presence/in the absence of chemical substance” value (yeast gene YLR089C) was 1.7. The “The level of expressed mRNA in the presence of chemical substance/The level of expressed mRNA in the absence of chemical substance” value (yeast gene YLR180W) was 1.7, the “The level of expressed mRNA in the presence of chemical substance/The level of expressed mRNA in the absence of chemical substance” value (yeast gene YLR273C) was 1.4 and the “level of expressed mRNA in the presence/in the absence of chemical substance” value (yeast gene YLR284C) was 1.5. For the same compound, the “The level of expressed mRNA in the presence of chemical substance/The level of expressed mRNA in the absence of chemical substance” value (yeast gene YLR299W) was 1.7, the “The level of expressed mRNA in the presence of chemical substance/The level of expressed mRNA in the absence of chemical substance” value (yeast gene YLR300W) was 1.0 and the “level of expressed mRNA in the presence/in the absence of chemical substance” value (yeast gene YLR304C) was 1.6. The “The level of expressed mRNA in the presence of chemical substance/The level of expressed mRNA in the absence of chemical substance” value (yeast gene YLR307W) was 0.8, the “The level of expressed mRNA in the presence of chemical substance/The level of expressed mRNA in the absence of chemical substance” value (yeast gene YLR348C) was 1.3 and the “level of expressed mRNA in the presence/in the absence of chemical substance” value (yeast gene YLR354C) was 1.7. The “level of expressed mRNA in the presence/in the absence of chemical substance” value (yeast gene YLR372W) was 0.9, the “level of expressed mRNA in the presence/in the absence of chemical substance” value (yeast gene YML022W) was 1.2 and the “The level of expressed mRNA in the presence of chemical substance/The level of expressed mRNA in the absence of chemical substance” value (yeast gene YML054C) was 1.4. For the same compound, the “The level of expressed mRNA in the presence of chemical substance/The level of expressed mRNA in the absence of chemical substance” value (yeast gene YML058W) was 3.3, the “The level of expressed mRNA in the presence of chemical substance/The level of expressed mRNA in the absence of chemical substance” value (yeast gene YML070W) was 1.5 and the “The level of expressed mRNA in the presence of chemical substance/The level of expressed mRNA in the absence of chemical substance” value (yeast gene YML100W) was 3.2. For the same compound, the “The level of expressed mRNA in the presence of chemical substance/The level of expressed mRNA in the absence of chemical substance” value (yeast gene YMR008C) was 1.3, the “level of expressed mRNA in the presence/in the absence of chemical substance” value (yeast gene YMR011W) was 1.5 and the “level of expressed mRNA in the presence/in the absence of chemical substance” value (yeast gene YMR015C) was 1.0. The “The level of expressed mRNA in the presence of chemical substance/The level of expressed mRNA in the absence of chemical substance” value (yeast gene YMR020W) was 1.5, the “level of expressed mRNA in the presence/in the absence of chemical substance” value (yeast gene YMR083W) was 1.6 and the “The level of expressed mRNA in the presence of chemical substance/The level of expressed mRNA in the absence of chemical substance” value (yeast gene YMR105C) was 3.0. For the same compound, the “The level of expressed mRNA in the presence of chemical substance/The level of expressed mRNA in the absence of chemical substance” value (yeast gene YMR189W) was 8.2, the “level of expressed mRNA in the presence/in the absence of chemical substance” value (yeast gene YMR205C) was 1.0 and the “level of expressed mRNA in the presence/in the absence of chemical substance” value (yeast gene YMR261C) was 0.8. The “The level of expressed mRNA in the presence of chemical substance/The level of expressed mRNA in the absence of chemical substance” value (yeast gene YMR271C) was 1.7, the “The level of expressed mRNA in the presence of chemical substance/The level of expressed mRNA in the absence of chemical substance” value (yeast gene YMR296C) was 0.8 and the “level of expressed mRNA in the presence/in the absence of chemical substance” value (yeast gene YMR323W) was 2.5. For the same compound, the “The level of expressed mRNA in the presence of chemical substance/The level of expressed mRNA in the absence of chemical substance” value (yeast gene YNL012W) was 1.6, the “level of expressed mRNA in the presence/in the absence of chemical substance” value (yeast gene YNL025C) was 1.1 and the “The level of expressed mRNA in the presence of chemical substance/The level of expressed mRNA in the absence of chemical substance” value (yeast gene YNL045W) was 2.1. The “The level of expressed mRNA in the presence of chemical substance/The level of expressed mRNA in the absence of chemical substance” value (yeast gene YNL104C) was 2.1, the “The level of expressed mRNA in the presence of chemical substance/The level of expressed mRNA in the absence of chemical substance” value (yeast gene YNL106C) was 0.9 and the “The level of expressed mRNA in the presence of chemical substance/The level of expressed mRNA in the absence of chemical substance” value (yeast gene YNL169C) was 0.8. The “level of expressed mRNA in the presence/in the absence of chemical substance” value (yeast gene YNL192W) was 1.1, the “The level of expressed mRNA in the presence of chemical substance/The level of expressed mRNA in the absence of chemical substance” value (yeast gene YNL231C) was 1.3 and the “The level of expressed mRNA in the presence of chemical substance/The level of expressed mRNA in the absence of chemical substance” value (yeast gene YNL322C) was 0.6. For the same compound, the “The level of expressed mRNA in the presence of chemical substance/The level of expressed mRNA in the absence of chemical substance” value (yeast gene YNL331C) was 21.8, the “The level of expressed mRNA in the presence of chemical substance/The level of expressed mRNA in the absence of chemical substance” value (yeast gene YNL332W) was 2.6 and the “The level of expressed mRNA in the presence of chemical substance/The level of expressed mRNA in the absence of chemical substance” value (yeast gene YNR019W) was 0.7. The “The level of expressed mRNA in the presence of chemical substance/The level of expressed mRNA in the absence of chemical substance” value (yeast gene YNR033W) was 0.4, the “The level of expressed mRNA in the presence of chemical substance/The level of expressed mRNA in the absence of chemical substance” value (yeast gene YNR059W) was 1.0 and the “The level of expressed mRNA in the presence of chemical substance/The level of expressed mRNA in the absence of chemical substance” value (yeast gene YOL058W) was 2.3. The “level of expressed mRNA in the presence/in the absence of chemical substance” value (yeast gene YOL086C) was 2.6, the “level of expressed mRNA in the presence/in the absence of chemical substance” value (yeast gene YOL108C) was 1.1 and the “level of expressed mRNA in the presence/in the absence of chemical substance” value (yeast gene YOL116W) was 1.0. For the same compound, the “The level of expressed mRNA in the presence of chemical substance/The level of expressed mRNA in the absence of chemical substance” value (yeast gene YOL126C) was 1.8, the “The level of expressed mRNA in the presence of chemical substance/The level of expressed mRNA in the absence of chemical substance” value (yeast gene YOL153C) was 2.4 and the “level of expressed mRNA in the presence/in the absence of chemical substance” value (yeast gene YOL156W) was 1.1. The “The level of expressed mRNA in the presence of chemical substance/The level of expressed mRNA in the absence of chemical substance” value (yeast gene YOL165C) was 17.6, the “level of expressed mRNA in the presence/in the absence of chemical substance” value (yeast gene YOR002W) was 1.2 and the “level of expressed mRNA in the presence/in the absence of chemical substance” value (yeast gene YOR085W) was 1.1. The “The level of expressed mRNA in the presence of chemical substance/The level of expressed mRNA in the absence of chemical substance” value (yeast gene YOR099W) was 1.2, the “level of expressed mRNA in the presence/in the absence of chemical substance” value (yeast gene YOR103C) was 1.0 and the “level of expressed mRNA in the presence/in the absence of chemical substance” value (yeast gene YOR108W) was 1.4. The “level of expressed mRNA in the presence/in the absence of chemical substance” value (yeast gene YOR128C) was 0.8, the “The level of expressed mRNA in the presence of chemical substance/The level of expressed mRNA in the absence of chemical substance” value (yeast gene YOR130C) was 0.6 and the “level of expressed mRNA in the presence/in the absence of chemical substance” value (yeast gene YOR142W) was 1.5. The “level of expressed mRNA in the presence/in the absence of chemical substance” value (yeast gene YOR176W) was 1.4, the “level of expressed mRNA in the presence/in the absence of chemical substance” value (yeast gene YOR178C) was 4.1 and the “level of expressed mRNA in the presence/in the absence of chemical substance” value (yeast gene YOR251C) was 1.0. The “The level of expressed mRNA in the presence of chemical substance/The level of expressed mRNA in the absence of chemical substance” value (yeast gene YOR336W) was 1.4, the “The level of expressed mRNA in the presence of chemical substance/The level of expressed mRNA in the absence of chemical substance” value (yeast gene YOR347C) was 1.4 and the “level of expressed mRNA in the presence/in the absence of chemical substance” value (yeast gene YOR348C) was 1.1. The “The level of expressed mRNA in the presence of chemical substance/The level of expressed mRNA in the absence of chemical substance” value (yeast gene YPL017C) was 0.4, the “level of expressed mRNA in the presence/in the absence of chemical substance” value (yeast gene YPL028W) was 1.2 and the “level of expressed mRNA in the presence/in the absence of chemical substance” value (yeast gene YPL057C) was 1.6. For the same compound, the “level of expressed mRNA in the presence/in the absence of chemical substance” value (yeast gene YPL135W) was 1.3, the “level of expressed mRNA in the presence/in the absence of chemical substance” value (yeast gene YPL148C) was 3.5 and the “The level of expressed mRNA in the presence of chemical substance/The level of expressed mRNA in the absence of chemical substance” value (yeast gene YPR026W) was 1.6. The “level of expressed mRNA in the presence/in the absence of chemical substance” value (yeast gene YPR113W) was 2.0, the “The level of expressed mRNA in the presence of chemical substance/The level of expressed mRNA in the absence of chemical substance” value (yeast gene YPR160W) was 4.4 and the “level of expressed mRNA in the presence/in the absence of chemical substance” value (yeast gene YPR165W) was 1.0. For the same compound, the “The level of expressed mRNA in the presence of chemical substance/The level of expressed mRNA in the absence of chemical substance” value (yeast gene YPR167C) was 1.9, the “level of expressed mRNA in the presence/in the absence of chemical substance” value (yeast gene YPR183W) was 2.5 and the “The level of expressed mRNA in the presence of chemical substance/The level of expressed mRNA in the absence of chemical substance” value (yeast gene YPR184W) was 3.6.
